From US9302999B2, “Substituted triazoles as herbicides” (E. I. DU PONT DE NEMOURS AND COMPANY, priority 2012, dated 2016)

Legend:
Format in all cases: in vivo
[1] = tested on: barnyardgrass (Echinochloa crus-galli); assay: Test E pre-/postemergence: barnyardgrass; conditions: scale 0 to 100
Summary of the method: (§1)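 Visual injury scored 0–100 (0 no effect, 100 complete control) against controls after 14 to 21 days in greenhouse. Compounds formulated in surfactant-containing non-phytotoxic solvent, applied pre-emergence to seeded silt loam or post-emergence to 1- to 4-leaf plants in peat-based medium.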

[2] = tested on: nutsedge, yellow (yellow nutsedge, Cyperus esculentus); assay: Test E pre-/postemergence: nutsedge, yellow; conditions: Preemergence, scale 0 to 100
Source text: (§2) Seeds of plant species selected from corn (Zea mays), soybean (Glycine max), velvetleaf (Abutilon theophrasti), lambsquarters (Chenopodium album), poinsettia, wild (wild poinsettia, Euphorbia heterophylla), pigweed, palmer (palmer pigweed, Amaranthus palmeri), waterhemp (common waterhemp, Amaranthus rudis), smartweed (ladysthumb smartweed, Polygonum persicaria), surinam grass (Brachiaria decumbens), crabgrass, large (large crabgrass, Digitaria sanguinalis), crabgrass, Brazil (Brazilian crabgrass, Digitaria horizontalis), panicum, fall (fall panicum, Panicum dichotomiflorum), foxtail, giant (giant foxtail, Setaria faberii), foxtail, green (green foxtail, Setaria viridis), goosegrass (Eleusine indica), johnsongrass (Sorghum halepense), ragweed (common ragweed, Ambrosia elation), barnyardgrass (Echinochloa crus-galli), sandbur (southern sandbur, Cenchrus echinatus), arrowleaf sida (Sida rhombifolia), ryegrass, Italian (Italian ryegrass, Lolium multiflorum), dayflower, (VA) (Virginia dayflower, Commelina virginica), field bindweed (Convolvulus arvensis), cocklebur (common cocklebur, Xanthium strumarium), morningglory (Ipomoea coccinea), nightshade (eastern black nightshade, Solanum ptycanthum), kochia (Kochia scoparia), nutsedge, yellow (yellow nutsedge, Cyperus esculentus) and beggarticks (hairy beggarticks, Bidens pilosa) were planted into a silt loam soil and treated preemergence with test chemicals formulated in a non-phytotoxic solvent mixture which included a surfactant. At the same time, plants selected from these crop and weed species were planted in pots containing a growing medium comprising spaghnum peat moss, vermiculite, wetting agent and starter nutrients and treated with postemergence applications of some of the test chemicals formulated in the same manner. Plants ranged in height from 2 to 18 cm for postemergence treatments (1- to 4-leaf stage).
(§3) Treated plants and controls were maintained in a greenhouse for 14 to 21 days, after which time all species were compared to controls and visually evaluated. Plant response ratings, summarized in Table E, are based on a scale of 0 to 100 where 0 is no effect and 100 is complete control. A dash (-) response means no test result.

[3] = tested on: ragweed (common ragweed, Ambrosia elation); assay: Test E pre-/postemergence: ragweed; conditions: Preemergence, scale 0 to 100
Source text: as §2, §3

[4] = tested on: beggarticks (hairy beggarticks, Bidens pilosa); assay: Test E pre-/postemergence: beggarticks; conditions: scale 0 to 100
Source text: as §2, §3

[5] = tested on: panicum, fall (fall panicum, Panicum dichotomiflorum); assay: Test E pre-/postemergence: panicum, fall; conditions: scale 0 to 100
Source text: as §2, §3

[6] = tested on: field bindweed (Convolvulus arvensis); assay: Test E pre-/postemergence: field bindweed; conditions: scale 0 to 100
Summary of the method: as §1

[7] = tested on: soybean (Glycine max); assay: Test E pre-/postemergence: soybean; conditions: scale 0 to 100
Summary of the method: as §1

[8] = tested on: crabgrass, Brazil (Brazilian crabgrass, Digitaria horizontalis); assay: Test E pre-/postemergence: crabgrass, Brazil; conditions: scale 0 to 100
Summary of the method: as §1

[9] = tested on: goosegrass (Eleusine indica); assay: Test E pre-/postemergence: goosegrass; conditions: Preemergence, scale 0 to 100
Summary of the method: as §1

[10] = tested on: cocklebur (common cocklebur, Xanthium strumarium); assay: Test E pre-/postemergence: cocklebur; conditions: Preemergence, scale 0 to 100
Summary of the method: as §1

[11] = tested on: poinsettia, wild (wild poinsettia, Euphorbia heterophylla); assay: Test E pre-/postemergence: poinsettia, wild; conditions: scale 0 to 100
Summary of the method: as §1

How did the “Plant response rating: Barnyardgrass” value ([1]; Postemergence, 8 g ai/ha) turn out when Cc1nn(-c2ccc(C(F)(F)F)cc2)nc1Oc1ccnc(C(F)(F)F)c1 [Compound 120] was run?
Its value is 10.

What about the “Plant response rating: Barnyardgrass” value ([1]; Postemergence, 16 g ai/ha) of the same compound?
Its value is 10.

And the “Plant response rating: Barnyardgrass” value ([1]; Postemergence, 31 g ai/ha)?
Its value is 20.

And the “Plant response rating: Barnyardgrass” value ([1]; Postemergence, 62 g ai/ha)?
The value was 25.

What about the “Plant response rating: Barnyardgrass” value ([1]; Postemergence, 125 g ai/ha) of the same compound?
Its value is 30.

What about the “Plant response rating: Barnyardgrass” value ([1]; Preemergence, 16 g ai/ha) of the same compound?
Its value is 0.

What about the “Plant response rating: Barnyardgrass” value ([1]; Preemergence, 31 g ai/ha) of the same compound?
Its value is 0.

And the “Plant response rating: Barnyardgrass” value ([1]; Preemergence, 62 g ai/ha)?
Its value is 5.

What about the “Plant response rating: Barnyardgrass” value ([1]; Preemergence, 125 g ai/ha) of the same compound?
The value was 25.

And the “Plant response rating: Barnyardgrass” value ([1]; Preemergence, 250 g ai/ha)?
The value was 100.

And the “Plant response rating: Nutsedge, Yellow” value ([2]; 16 g ai/ha)?
Its value is 0.

What about the “Plant response rating: Nutsedge, Yellow” value ([2]; 31 g ai/ha) of the same compound?
The value was 0.

And the “Plant response rating: Nutsedge, Yellow” value ([2]; 62 g ai/ha)?
The value was 0.

And the “Plant response rating: Nutsedge, Yellow” value ([2]; 125 g ai/ha)?
The value was 15.

What about the “Plant response rating: Nutsedge, Yellow” value ([2]; 250 g ai/ha) of the same compound?
The value was 25.

And the “Plant response rating: Ragweed” value ([3]; 16 g ai/ha)?
Its value is 0.

What about the “Plant response rating: Ragweed” value ([3]; 31 g ai/ha) of the same compound?
Its value is 0.

And the “Plant response rating: Ragweed” value ([3]; 62 g ai/ha)?
Its value is 30.

And the “Plant response rating: Ragweed” value ([3]; 125 g ai/ha)?
The value was 35.

What about the “Plant response rating: Ragweed” value ([3]; 250 g ai/ha) of the same compound?
The value was 80.

What about the “Plant response rating: Beggarticks” value ([4]; Postemergence, 8 g ai/ha) of the same compound?
The value was 10.

And the “Plant response rating: Beggarticks” value ([4]; Postemergence, 16 g ai/ha)?
The value was 10.

And the “Plant response rating: Beggarticks” value ([4]; Postemergence, 31 g ai/ha)?
Its value is 20.

And the “Plant response rating: Beggarticks” value ([4]; Postemergence, 62 g ai/ha)?
Its value is 30.

What about the “Plant response rating: Beggarticks” value ([4]; Postemergence, 125 g ai/ha) of the same compound?
Its value is 35.

And the “Plant response rating: Beggarticks” value ([4]; Preemergence, 16 g ai/ha)?
Its value is 0.

And the “Plant response rating: Beggarticks” value ([4]; Preemergence, 31 g ai/ha)?
Its value is 0.

And the “Plant response rating: Beggarticks” value ([4]; Preemergence, 125 g ai/ha)?
The value was 80.

What about the “Plant response rating: Panicum, Fall” value ([5]; Postemergence, 8 g ai/ha) of the same compound?
Its value is 5.

And the “Plant response rating: Panicum, Fall” value ([5]; Postemergence, 16 g ai/ha)?
The value was 10.

What about the “Plant response rating: Panicum, Fall” value ([5]; Postemergence, 31 g ai/ha) of the same compound?
Its value is 10.

And the “Plant response rating: Panicum, Fall” value ([5]; Postemergence, 62 g ai/ha)?
The value was 20.

What about the “Plant response rating: Panicum, Fall” value ([5]; Postemergence, 125 g ai/ha) of the same compound?
The value was 25.

And the “Plant response rating: Panicum, Fall” value ([5]; Preemergence, 16 g ai/ha)?
Its value is 95.

And the “Plant response rating: Panicum, Fall” value ([5]; Preemergence, 31 g ai/ha)?
Its value is 95.

And the “Plant response rating: Panicum, Fall” value ([5]; Preemergence, 62 g ai/ha)?
The value was 100.

What about the “Plant response rating: Panicum, Fall” value ([5]; Preemergence, 125 g ai/ha) of the same compound?
Its value is 100.

What about the “Plant response rating: Panicum, Fall” value ([5]; Preemergence, 250 g ai/ha) of the same compound?
Its value is 100.

And the “Plant response rating: Field Bindweed” value ([6]; Postemergence, 16 g ai/ha)?
Its value is 20.

What about the “Plant response rating: Field Bindweed” value ([6]; Postemergence, 31 g ai/ha) of the same compound?
Its value is 30.

What about the “Plant response rating: Field Bindweed” value ([6]; Postemergence, 62 g ai/ha) of the same compound?
Its value is 35.

And the “Plant response rating: Field Bindweed” value ([6]; Postemergence, 125 g ai/ha)?
The value was 35.

What about the “Plant response rating: Field Bindweed” value ([6]; Preemergence, 16 g ai/ha) of the same compound?
Its value is 0.

What about the “Plant response rating: Field Bindweed” value ([6]; Preemergence, 31 g ai/ha) of the same compound?
The value was 10.

What about the “Plant response rating: Field Bindweed” value ([6]; Preemergence, 62 g ai/ha) of the same compound?
Its value is 20.

And the “Plant response rating: Field Bindweed” value ([6]; Preemergence, 125 g ai/ha)?
Its value is 40.

What about the “Plant response rating: Field Bindweed” value ([6]; Preemergence, 250 g ai/ha) of the same compound?
The value was 98.

What about the “Plant response rating: Soybean” value ([7]; Postemergence, 8 g ai/ha) of the same compound?
Its value is 15.

And the “Plant response rating: Soybean” value ([7]; Postemergence, 16 g ai/ha)?
The value was 20.

And the “Plant response rating: Soybean” value ([7]; Postemergence, 31 g ai/ha)?
The value was 30.

What about the “Plant response rating: Soybean” value ([7]; Postemergence, 62 g ai/ha) of the same compound?
The value was 40.

And the “Plant response rating: Soybean” value ([7]; Postemergence, 125 g ai/ha)?
Its value is 50.

And the “Plant response rating: Soybean” value ([7]; Preemergence, 16 g ai/ha)?
The value was 0.

What about the “Plant response rating: Soybean” value ([7]; Preemergence, 31 g ai/ha) of the same compound?
Its value is 25.

And the “Plant response rating: Soybean” value ([7]; Preemergence, 62 g ai/ha)?
Its value is 35.

And the “Plant response rating: Soybean” value ([7]; Preemergence, 125 g ai/ha)?
The value was 35.

And the “Plant response rating: Soybean” value ([7]; Preemergence, 250 g ai/ha)?
The value was 35.

What about the “Plant response rating: Crabgrass, Brazil” value ([8]; Postemergence, 8 g ai/ha) of the same compound?
Its value is 10.

And the “Plant response rating: Crabgrass, Brazil” value ([8]; Postemergence, 16 g ai/ha)?
Its value is 15.

What about the “Plant response rating: Crabgrass, Brazil” value ([8]; Postemergence, 31 g ai/ha) of the same compound?
Its value is 25.

What about the “Plant response rating: Crabgrass, Brazil” value ([8]; Postemergence, 62 g ai/ha) of the same compound?
Its value is 30.

And the “Plant response rating: Crabgrass, Brazil” value ([8]; Postemergence, 125 g ai/ha)?
Its value is 40.

What about the “Plant response rating: Crabgrass, Brazil” value ([8]; Preemergence, 16 g ai/ha) of the same compound?
The value was 90.

What about the “Plant response rating: Crabgrass, Brazil” value ([8]; Preemergence, 31 g ai/ha) of the same compound?
Its value is 100.

What about the “Plant response rating: Crabgrass, Brazil” value ([8]; Preemergence, 62 g ai/ha) of the same compound?
The value was 100.

And the “Plant response rating: Crabgrass, Brazil” value ([8]; Preemergence, 125 g ai/ha)?
The value was 100.

And the “Plant response rating: Crabgrass, Brazil” value ([8]; Preemergence, 250 g ai/ha)?
The value was 100.

And the “Plant response rating: Goosegrass” value ([9]; 16 g ai/ha)?
Its value is 95.

What about the “Plant response rating: Goosegrass” value ([9]; 31 g ai/ha) of the same compound?
The value was 100.

And the “Plant response rating: Goosegrass” value ([9]; 62 g ai/ha)?
Its value is 100.

And the “Plant response rating: Goosegrass” value ([9]; 125 g ai/ha)?
Its value is 100.

And the “Plant response rating: Goosegrass” value ([9]; 250 g ai/ha)?
The value was 100.

What about the “Plant response rating: Cocklebur” value ([10]; 16 g ai/ha) of the same compound?
Its value is 0.

And the “Plant response rating: Cocklebur” value ([10]; 31 g ai/ha)?
The value was 0.

What about the “Plant response rating: Cocklebur” value ([10]; 62 g ai/ha) of the same compound?
The value was 90.

And the “Plant response rating: Cocklebur” value ([10]; 125 g ai/ha)?
Its value is 90.

What about the “Plant response rating: Poinsettia, Wild” value ([11]; Postemergence, 8 g ai/ha) of the same compound?
Its value is 25.

And the “Plant response rating: Poinsettia, Wild” value ([11]; Postemergence, 16 g ai/ha)?
Its value is 35.

What about the “Plant response rating: Poinsettia, Wild” value ([11]; Postemergence, 31 g ai/ha) of the same compound?
The value was 13.

What about the “Plant response rating: Poinsettia, Wild” value ([11]; Postemergence, 62 g ai/ha) of the same compound?
The value was 60.

And the “Plant response rating: Poinsettia, Wild” value ([11]; Postemergence, 125 g ai/ha)?
The value was 90.

And the “Plant response rating: Poinsettia, Wild” value ([11]; Preemergence, 16 g ai/ha)?
The value was 0.

And the “Plant response rating: Poinsettia, Wild” value ([11]; Preemergence, 31 g ai/ha)?
Its value is 0.

And the “Plant response rating: Poinsettia, Wild” value ([11]; Preemergence, 62 g ai/ha)?
Its value is 0.

And the “Plant response rating: Poinsettia, Wild” value ([11]; Preemergence, 125 g ai/ha)?
The value was 35.

And the “Plant response rating: Poinsettia, Wild” value ([11]; Preemergence, 250 g ai/ha)?
The value was 50.
